Where two headings read alike, the source gives them in different places.
Assays:
Type in all cases: cell-based
[1] = tested on: LN18 MTAP-overexpressing cells; assay: Inhibition of proliferation of LN18 MTAP-overexpressing cells (CellTiter-Glo); conditions: cell proliferation, 7 days
Excerpt: Test 6: Assay for Inhibitory Activity of Compounds against LN18 MTAP-Overexpressing Cell Proliferatio
Materials and Cells: The LN18 MTAP-overexpressing cell line was purchased from Cobioer Biosciences (China). Cell culture media, fetal bovine serum (FBS), and penicillin-streptomycin were purchased from Thermo Fisher Scientific (USA). 384-well plates were purchased from PerkinElmer (USA). The CellTiter-Glo assay kit was purchased from Promega (USA).
Cell Culture: LN18 MTAP-overexpressing cells were cultured in a medium supplemented with 10% fetal bovine serum (FBS) and 1% penicillin-streptomycin at 37°C with 5% CO2. Only cells in the logarithmic growth phase were used for experiments.
Cell Proliferation Inhibition Assay: The antiproliferative activity of the compounds against LN18 MTAP-overexpressing cells was assessed using the CellTiter-Glo assay kit. Cell suspensions were adjusted to the appropriate density and seeded into 384-well plates at a volume of 40 µL per well, then incubated overnight at 37°C with 5% CO2. Compounds (40 nL) were added to each well to achieve final concentrations ranging from 0 to 10,000 nM (starting concentration 10,000 nM, 3-fold serial dilutions, 9 dose points), with a final DMSO concentration of […]. The cell plates were incubated at 37°C with 5% CO2 for 7 days. Subsequently, 40 µL of CellTiter-Glo reagent was added to measure cell viability.

U87MG MTAP(-/-) cells = assay: Inhibition of proliferation of U87MG MTAP(-/-) cells (CellTiter-Glo); conditions: Homo sapiens, U-87 MG, 144 h, cell proliferation, 6 days
How it was run: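 U87MG MTAP(-/-) cells in log phase, seeded overnight, then exposed 6 days at 37 °C, 5% CO2 to compound at 10,000 nM top, 3-fold dilutions, 10 points, 0.5% DMSO final. Viability read by CellTiter-Glo luminescence.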

SW780 = assay: Mini cell panel: inhibition of proliferation of SW780 cells
Excerpt: (§1) Test 9: Mini Cell Panel: Assay for Inhibitory Activity of Compounds against Proliferation of 20 Tumor Cell Lines
(§2) Materials and Cells: Fifteen MTAP(-/-) cell lines and five MTAP wild-type cell lines were purchased from ATCC (USA). Cell culture media, fetal bovine serum (FBS), and penicillin-streptomycin were purchased from Thermo Fisher Scientific (USA). 384-well plates were purchased from PerkinElmer (USA). The CellTiter-Glo assay kit was purchased from Promega (USA). Paclitaxel was used as the control compound.

DOHH-2 = assay: Mini cell panel: inhibition of proliferation of DOHH-2 cells
Excerpt: as §1, §2

SK-MEL-5 = assay: Mini cell panel: inhibition of proliferation of SK-MEL-5 cells; conditions: Homo sapiens, MTAP (-/-)
Excerpt: as §1, §2

[2] = tested on: five MTAP wild-type cell lines; assay: Mini cell panel: summary over the MTAP wild-type cell lines
Excerpt: as §1, §2

[3] = Homo sapiens, SW780, MTAP (-/-)
[4] = Homo sapiens, DOHH-2, MTAP (-/-)
[5] = read-out: median IC50, MTAP wild-type cells
[6] = span over the cell lines, read-out: IC50 values (range) against MTAP wild-type cells

| IC50 (U87MG MTAP(-/-) cells) | Compound | IC50 ([1]; Homo sapiens, LN-18, 168 h) | IC50 (SW780; [3]) | IC50 (DOHH-2; [4]) | IC50 (SK-MEL-5) | IC50 [2, 5] | IC50 [2, 6] | IC50 [1] | IC50 (SW780; MTAP (-/-)) | IC50 (DOHH-2; MTAP (-/-)) |
| --- | --- | --- | --- | --- | --- | --- | --- | --- | --- | --- |
| 93.1 nM | CN(C(=O)c1cc2c(cn1)nc(N)c1cncn12)[C@@H]1COc2cc(C(F)(F)F)ccc21 [Example 4, (S)-4-amino-N-methy 1-N-(6-(trifluoromethy 1)-2,3-dihydrobenzofuran-3-yl)imidazo[1,5-a]pyrido[3,4-e]pyrazine-8-carboxamide] | 868 nM | 177 nM | 19.3 nM | > 1000 nM | 1.71 µM | 0.407 to 6.6 µM |  |  |  |
| 58.5 nM | [2H]C([2H])([2H])N(C(=O)c1cc2c(cc1F)nc(N)c1cncn12)[C@@H]1COc2cc(C(F)(F)F)ccc21 [Example 41, (S)-4-amino-7-fluoro-N-(methyl-d3)-N-(6-(trifluoromethyl)-2,3-di hydrobenzofuran-3-yl)imidazo[1,5-a]quinox aline-8-carboxamide] | 1970 nM |  |  |  |  |  |  |  |  |

Continued, compound first:

| Compound | IC50 (U87MG MTAP(-/-) cells) | IC50 ([1]; Homo sapiens, LN-18, 168 h) | IC50 (SW780; [3]) | IC50 (DOHH-2; [4]) | IC50 (SK-MEL-5) | IC50 [2, 5] | IC50 [2, 6] | IC50 [1] | IC50 (SW780; MTAP (-/-)) | IC50 (DOHH-2; MTAP (-/-)) |
| --- | --- | --- | --- | --- | --- | --- | --- | --- | --- | --- |
| [2H]C([2H])([2H])N(C(=O)c1ccc2nc(N)c3cncn3c2c1)[C@@H]1COc2cc(C(F)(F)F)ccc21 [Example 16, (S)-4-amino-N-(methyl-d3)-N-(6-(trifluoromethyl)-2,3-dihydrobenzofuran-3-yl)imidaz o[1,5-a]quinoxaline-8-carboxamide] | 70.8 nM | 1200 nM |  |  |  |  |  |  |  |  |
| CN(C(=O)c1ccc2nc(N)c3cncn3c2c1)[C@@H]1COc2cc(C(F)(F)F)ccc21 [Example 107, (S)-4-amino-N-methy 1-N-(6-(trifluoromethy 1)-2,3-dihydrobenzofuran-3-yl)imidazo[1,5-a]quinoxaline-8-carboxamide] | 111 nM | 1370 nM | 210 nM | 33.2 nM | > 1000 nM | 3.33 µM | ≥ 0.781 µM |  |  |  |
| (S)-4-amino-7-fluoro-N-methyl-N-(6-(triflu oromethyl)-2,3-dihydr obenzofuran-3-yl)imi dazo[1,5-a]quinoxalin e-8-carboxamide [Example 29] |  |  |  |  |  | 3.3 µM |  | 812 nM | 660 nM | 11.6 nM |

— patent EP4775208A1, “USE OF PRMT5 INHIBITOR IN TREATMENT OF TUMORS OR CANCERS” (Apeiron Therapeutics (Hong Kong) Ltd., priority 2023, dated 2025)
